Test results reported in patent US4164571A, “Medicament which antagonizes the action of gastrin and related polypeptides” (Commissariat a l'Energie Atomique, priority 1976, dated 1979).
Where two headings read alike, the source gives them in different places.

Tests used:
[1] = tested on: mice; details: for number of death cases: group of ten mice
Description: All the dead or surviving animals are autopsied, the stomach and the small intestine are examined for heamorrhages or ulcers.

[2] = tested on: stimulated secretion of gastric juice; assay: stimulated gastric acid secretion in anaesthetised perfused rats (Ghosh and Schild, modified by Lai), intravenous injection; assay type: in vivo, rat; details: for % inhibition of pentagastrin stimulated acid secretion / % inhibition of gastrin I stimulated acid secretion: i.v.
Procedure: A first series of experiments was carried out on male Wistar rats weighing 300 to 325 g. The procedure used was that of Ghosh and Schild, modified by Lai. The rats fasted for the 18 hours preceding the test. On the day of the test the rats were anaesthesized with urethane by the intraperitoneal route at a rate of 1.20 g of urethane per kilogramme. The rectal temperature was maintained at 34°±1° C. by means of an anal probe connected to a thermometer which electronically controlled the lighting up of a 100 Watt lamp positioned above each rat. An oesophageal probe (polyethylene catheter) was introduced up to the oesophagus--rumen junction of the rat and another catheter was introduced into the pyloric opening via the duodenum. The stomach was perfused with a solution of physiological serum introduced by means of the oesophageal tube at a constant speed of 1 ml/mn and was collected every ten minutes by the pyloroduodenal probe.
The rats prepared in this way were left to rest for a period of at least 45 minutes. The perfusate sampled every 10 minutes was then determined by means of a 0.01 N soda solution at pH 8.45, corresponding to a phenolphthalein colour change or at pH 7.4 with an automatic titration apparatus at constant pH.
After determining the basal acid secretion of the gastric juice on at least four consecutive samples a dose of gastrin was intravenously administered to the rats in the vein of the penis and subsequently the response to this stimulation was recorded until the secretion returned to the basal level over a period of at least twice 10 minutes. […] The results are expressed in microequivalents of hydrochloric acid per 40 minutes and are calculated as follows: either as the number of secreted microequivalents after stimulation less the number of microequivalents secreted in the 40 minutes prior to the injection of the dose, or as an acid peak, i.e., taking the average of the two consecutive maximum responses for each dose less the average value for the two basal values preceding the injection.
The transformation into double inverse makes it possible by analogy with enzymatic reactions to conclude whether the inhibition is of the competitive type or not.

[3] = tested on: stimulated secretion of gastric juice; assay: gastric acid secretion in rats under continuous intravenous perfusion; assay type: in vivo, rat
Procedure: In a second series of experiments an intravenous perfusion of an isotonic solution of […] sodium chloride was administered at a rate of 2.4 ml/h to rats prepared in the manner indicated hereinbefore according to the procedure of Ghosh and Schild, modified by Lai. This perfusion was administered to the vein of the penis.
The rats prepared in this manner were left at rest for at least 45 minutes, then the acidity was determined as hereinbefore on the gastric perfusate sampled every 10 minutes. […] At the end of the first hour a dose of gastrin I was added to the perfusion. The results obtained are given in FIG. 5a showing the variations of the gastric secretion as a function of time.

CSCC[C@H](NC(=O)[C@H](Cc1c[nH]c2ccccc12)NC(=O)CCNC(=O)OC(C)(C)C)C(=O)N[C@@H](CC(=O)O)C(=O)N[C@@H](Cc1ccccc1)C(N)=O [pentagastrin, Boc-Gly-Trp-Met-Asp-phe-NH2, reference compound]
number of death cases ([1]; 1280 μg/kg i.p., 2 h): 1 | number of death cases ([1]; 1280 μg/kg i.p., 6 h): 1 | number of death cases ([1]; 2560 μg/kg i.p., 2 h): 2 | number of death cases ([1]; 2560 μg/kg i.p., 48 h): 1 | dose at which digestive hemorrhages are observed ([1]; i.p., importance increases with the dose): ≥ 320 µg/kg | LD 50 ([1]; i.p., logit-log paper): higher than 3.2 mg/kg

Boc-Gly-Trp-(NPS)-Met-Aspe-Phe-NH2 [pentagastrin-NPS]
inhibition of pentagastrin action ([2]; pentagastrin-NPS associated with pentagastrin): inhibits the pentagastrin action | % inhibition of pentagastrin stimulated acid secretion ([2]; ratio pentagastrin-NPS/pentagastrin 1/1, 50 ng pentagastrin-NPS with 50 ng pentagastrin): 100% | % inhibition of pentagastrin stimulated acid secretion ([2]; ratio pentagastrin-NPS/pentagastrin 1/2, 50 ng pentagastrin-NPS with 100 ng pentagastrin): 100% | % inhibition of pentagastrin stimulated acid secretion ([2]; ratio pentagastrin-NPS/pentagastrin 1/3, 50 ng pentagastrin-NPS with 150 ng pentagastrin): 75% | % inhibition of pentagastrin stimulated acid secretion ([2]; ratio pentagastrin-NPS/pentagastrin 1/4, 50 ng pentagastrin-NPS with 200 ng pentagastrin): < 20% | number of death cases ([1]; 1280 μg/kg i.p., 24 h): 1 | petechiae at autopsy ([1]; 2560 μg/kg i.p.): a few petechiae are observed | number of death cases ([1]; 2560 μg/kg i.p., 6 h): 1 | number of death cases ([1]; 2560 μg/kg i.p., 24 h): 1 | number of death cases ([1]; 2560 μg/kg i.p., 48 h): 2 | digestive hemorrhage at autopsy ([1]; 160 to 2560 μg/kg i.p.): does not lead to any digestive hemorrhage | doses leading to no modifications (petechiae) of the stomach and of the intestine ([1]; i.p.): under 2,5 mg/kg

orthonitrophenyl sulphenylated gastrin I [gastrin I-NPS]
time until stimulated secretion plateau after introduction of gastrin I ([3]; 100 ng/h gastrin I-NPS with 200 ng/h gastrin I, plateau at a lower level): 30 min | time until stimulated secretion plateau after introduction of gastrin I ([3]; 100 ng/h gastrin I-NPS with 400 ng/h gastrin I, plateau reaches the level of 100 ng/h gastrin I): 40 min | secretory response to the substance alone ([3]; 100 ng/h in intravenous perfusion): causes no secretory response | type of inhibition of gastrin I response (double inverse representation) ([2]; 100 or 200 ng gastrin I-NPS with each dose of gastrin I): inhibition is competitive | % inhibition of gastrin I stimulated acid secretion ([2]; ratio gastrin I-NPS/gastrin I 1/1, 50 ng gastrin NPS with 50 ng gastrin I): 100% | % inhibition of gastrin I stimulated acid secretion ([2]; ratio gastrin I-NPS/gastrin I 1/2, 50 ng gastrin NPS with 100 ng gastrin I): 75% | % inhibition of gastrin I stimulated acid secretion ([2]; ratio gastrin I-NPS/gastrin I 1/3, 50 ng gastrin NPS with 150 ng gastrin I): 65% | % inhibition of gastrin I stimulated acid secretion ([2]; ratio gastrin I-NPS/gastrin I 1/4, 50 ng gastrin NPS with 200 ng gastrin I): < 35%
